Results published in patent publication US20230365639A1, “DEFENSIN FRAGMENT DERIVED LIPOPEPTIDES FOR TREATMENT OF DRUG-RESISTANT MICROORGANISMS” (priority 2020, published 2023).

Assays:
[1] = tested on: S. Typhimurium; experiment: Acute gastrointestinal infection caused by S. Typhimurium; assay type: in vivo, mice
Procedure: Methods: Analysis of bacterial loads in feces. Fresh fecal samples were collected and weighted. Samples were homogenized in 1 ml LB media by bead-beating with 1 mm zirconia/silica beads twice for 25 s using a Mini-Beadbeater-96 (BioSpec). To determine CFUs, dilutions of homogenized samples were plated on LB plates with 50 μg/ml kanamycin. Analysis of bacterial loads in intestinal content and systemic organs. All mice were euthanized by asphyxiation with CO2 at indicated time points. Intestinal tissues (small intestine, cecum, colon) were removed aseptically. To collect intestinal content, organs were flushed with PBS. Organs were opened longitudinally, cleaned thoroughly with PBS and weighted. Organs and content were homogenized in PBS using a Polytron homogenizer ([…]). Dilutions of homogenized samples were plated on LB plates containing 50 μg/ml kanamycin to determine CFUs. For S. Typhimurium infection experiments, age- and sex-matched mice between 10 and 14 weeks of age were used. Both-female and male mice were used in experiments. Water and food were withdrawn for 4 hours before mice were treated with 20 mg/mouse of streptomycin by oral gavage. Afterwards, mice were supplied with water and food ad libitum. 20 hours after streptomycin treatment, water and food were withdrawn again, 4 hours before the mice were orally infected with 10^5 CFU of S. Typhimurium in 200 μl PBS. […]

[2] = tested on: C. albicans; experiment: Broth microdilution assay, antifungal activity; assay type: cell-based
Procedure: (§1) Methods: Broth microdilution assay. Candida was cultured in TSB over night at 37° C., centrifuged (1500 rpm, 10 min, RT) and washed twice with 10 mM sodium phosphate buffer containing 1% (w/v) TSB. Candida cells were counted and approximately 5×10^5 CFU/ml fungi were incubated with serial peptide concentrations (1.17-150 μM) in a final volume of 100 μl in 10 mM sodium phosphate buffer containing 1% (w/v) TSB for 2 hours at 37° C. After incubation, 100 μl of 6% TSB (w/v) was added and absorbance was measured at 600 nm (Tecan, Switzerland) and monitored for 18 hours. Afterwards, 100 μl per well was plated on YPD agar to determine the number of viable bacteria microbiologically.

[3] = tested on: C. tropicalis; experiment: Broth microdilution assay, antifungal activity; assay type: cell-based
Procedure: as §1

[4] = Acute tolerability after oral administration; assay type: in vivo, C57BL/6N mice
Source text: Methods: C57BL/6N mice were generated and maintained (including breeding and housing) at the animal facilities of the Helmholtz Centre for Infection Research (HZI) under enhanced specific pathogen-free (SPF) conditions (Stehr et al., 2009). Animals used in the experiments were gender and age matched. Female and male mice with an age of 8-12 weeks were used. Sterilized food and water ad libitum were provided. Mice were kept under a strict 12-hour light cycle (lights on at 7:00 am and off at […]) and housed in groups of two to six mice per cage. All mice were euthanized by asphyxiation with CO2 and cervical dislocation. All animal experiments were performed in agreement with the local government of Lower Saxony, Germany (approved permission No. 33.19-42502-04-18/2499).
Age- and gender-matched mice received two doses of peptides (0, 125 μg or 250 μg) solved in 100 μl PBS orally per day. Bodyweight and appearance were recorded. The following day, mice were sacrificed and stomach, kidney, spleen, liver, small intestine, cecum and colon were removed for histological scoring. Around 1 ml of blood was taken from the heart to measure inflammatory markers including creatinine in the kidney and the enzyme levels of glutamate-oxalacetate-transaminase (GOT) in the liver.

[5] = tested on: bacteria from the ESKAPE panel; assay type: cell-based; conditions: broth microdilution, 1.17-150 μM peptide, 2 hours
Procedure: Methods: Broth microdilution assay. Log-phase bacteria were collected by centrifugation (2500 rpm, 10 min, 4° C.), washed twice with 10 mM sodium phosphate buffer containing 1% (w/v) TSB and the optical density at 600 nm was adjusted to 0.1. Approximately 5×10^5 CFU/ml bacteria were incubated with serial peptide concentrations (1.17-150 μM) in a final volume of 100 μl in 10 mM sodium phosphate buffer containing 1% (w/v) TSB for 2 hours at 37° C. After incubation, 100 μl of 6% TSB (w/v) was added and absorbance was measured at 600 nm (Tecan, Switzerland) and monitored for 18 hours. Afterwards, 100 μl per well was plated on LB agar to determine the number of viable bacteria microbiologically. Bactericidal activity was expressed as the LC99.9, the lowest concentration that killed ≥99.9% of bacteria.

## Pam2-Glc-Suc-RGKAKCCK [Pam-1]
[1]; 250 μg orally 6 and 22 hours post infection, vs PBS, Mann-Whitney test
  CFU of S. Typhimurium in cecum content: significantly reduced
[1]; mouse, in vivo
  CFU's in gut content and gut tissue, acute model (summary): significant CFU reduction in the acute model and this only for gut content
[2]
  antifungal activity against C. albicans: no antifungal activity
[3]
  antifungal activity against C. tropicalis: no antifungal activity
[4]; mouse, in vivo, po
  histological examination of gastrointestinal, liver and kidney tissues: no alterations
  serum level of creatinine: no significant differences between the groups
  serum level of glutamic oxaloacetic transaminase (GOT): no significant differences between the groups
[4]; oral, mice, 24 hours after application, 125 or 250 μg doses
  acute toxicity (histological analysis and serum markers): did not reveal any acute toxicity
[5]
  bactericidal activity: no or low bactericidal activity
